According to US6335366B2, “Naphthyloxy acetic acid derivatives and a pharmaceutical composition comprising them as an active ingredient” (Ono Pharmaceutical Co., Ltd., priority 1996, dated 2002):

test system: not given; assay: not given; settings: not given

melting point [°C]	SMILES
114 to 115.5	O=C(O)COc1cccc2c(CCSC[C@H](O)COc3ccccc3)cccc12 [3(3), 2-{5-[2-(2R-Hydroxy-3-phenoxypropylthio)ethyl]-1-naphthyloxy}acetic Acid]
114 to 115.5	O=C(O)COc1cccc2c(CCSCC(O)COc3ccccc3)cccc12 (stereo not drawn) [3(4), 2-{5-[2-(2S-Hydroxy-3-phenoxypropylthio)ethyl]-1-naphthyloxy}acetic Acid]
105 to 107	O=C(O)COc1cccc2c(CSCC(O)COc3ccccc3)cccc12 (stereo not shown) [3(5), 2-[5-(2RS-Hydroxy-3-phenoxypropylthio)methyl-1-naphthyloxy]acetic Acid]
186 to 190	O=C(O)COc1cccc2c(CS(=O)(=O)CC(O)COc3ccccc3)cccc12 (stereo not shown) [3(7), 2-[5-(2RS-Hydroxy-3-phenoxypropylsulfonyl)methyl-1-naphthyloxy]acetic Acid]

target: T1, prostanoide receptor subtype (mouse EP3α) (Mus musculus, UniProt P30557); assay: Binding assay using expression cell of prostanoide receptor subtype ([3H]-PGE2 competition, CHO cell membrane fraction); settings: [3H]-PGE2 2.5 nM; membrane fraction of CHO cells expressing mouse EP3α; Ki = IC50/(1+([C]/Kd)); read-out: dissociation constant Ki
T1 construct: expressed in transfected cells; host or cells: CHO cells (membrane fraction)
T1 sequence (P30557 1-365): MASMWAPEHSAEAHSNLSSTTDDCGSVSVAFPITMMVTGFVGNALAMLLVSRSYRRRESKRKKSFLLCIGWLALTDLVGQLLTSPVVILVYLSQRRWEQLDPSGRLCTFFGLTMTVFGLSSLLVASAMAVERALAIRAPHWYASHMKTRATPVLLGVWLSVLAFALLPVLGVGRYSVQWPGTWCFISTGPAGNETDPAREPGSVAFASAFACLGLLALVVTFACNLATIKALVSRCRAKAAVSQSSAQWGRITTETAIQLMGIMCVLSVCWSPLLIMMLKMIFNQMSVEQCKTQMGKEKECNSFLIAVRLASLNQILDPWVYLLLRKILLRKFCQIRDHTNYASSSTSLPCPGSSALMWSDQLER
Protocol: For example, in standard laboratory test, the effects of the compounds of the present invention were confirmed by inhibitory effect on binding PGE2 using expression cell of receptor.
(I) Binding Assay using Expression Cell of Prostanoide Receptor Subtype
The preparation of membrane fraction was carried out according to the method of Sugimoto et al (J. Biol. Chem. 267, 6463-6466 (1992)), using expression CHO cell of prostanoide receptor subtype (mouse EP3α).
The standard assay mixture contained membrane fraction (0.5 mg/ml), [^3H]-PGE2 in a final volume of […] was incubated for 1 hour at room temperature. The reaction was terminated by addition of 3 ml of ice-cold buffer. The mixture was rapidly filtered through a glass filter (GF/B). The radioactivity associated with the filter was measured by liquid scintillation counting.
Kd and Bmax values were determined from Scatchard plots (Ann. N.Y. Acad. Sci., 51, 660 (1949)). Non-specific binding was calculated as the bond in the presence of an excess ([…]) of unlabeled PGE2. In the experiment for competition of specific [^3H]-PGE2 binding by the compounds of the present invention, [^3H]-PGE2 was added at a concentration of 2.5 nM and the compounds of the present invention were at a concentration of 1 mM. Buffer: 10 mM potassium phosphate (pH6.0), 1 mM EDTA, 10 mM MgCl2, 0.1 M NaCl.
The dissociation constant Ki (μM) of each compound was calculated by the following equation.

Ki [µM]	SMILES
0.0099	O=C(O)COc1cccc2c(CCS(=O)(=O)CC(O)COc3ccccc3)cccc12 (stereo not shown) [3(2), 2-{5-[2-(2RS-Hydroxy-3-phenoxypropylsulfonyl)ethyl]-1-naphthyloxy}acetic Acid]
0.15	O=C(O)COc1cccc2c(C[S+]([O-])CC(O)COc3ccccc3)cccc12 (stereo not shown) [3(6), 2-[5-(2RS-Hydroxy-3-phenoxypropylsulfinyl)methyl-1-naphthyloxy]acetic Acid]
2	O=C(O)COc1cccc2c(CCCSCC(O)c3ccccc3)cccc12 (stereo not shown) [3(8), 2-{5-[3-(2RS-Hydroxy-2-phenylethylthio)propyl]-1-naphthyloxy}acetic Acid]
0.0086	O=C(O)COc1cccc2c(CCCS(=O)(=O)/C=C/c3ccccc3)cccc12 [5(1), 2-[5-(3-Styrylsulfonylpropyl)-1-naphthyloxy]acetic Acid]
0.048	O=C(O)COc1cccc2c(CCSCC(O)COc3ccccc3)cccc12 (stereo not shown) [compound 3]
0.08	O=C(O)COc1cccc2c(CCC[S+]([O-])/C=C/c3ccccc3)cccc12 (stereo not shown) [compound 5]
